According to patent US20260158016A1, “HALOPERIDOL DERIVATIVES, PHARMACEUTICAL COMPOSITION COMPRISING SAID DERIVATIVES, AND THERAPEUTIC USES THEREOF” (University of Virginia Patent Foundation, priority 2023, published 2026):
Entries after “also recorded” stand apart in the source; their conditions may differ.

Experiments:
dry AMD = assay: Health insurance claims database analysis (PearlDiver Mariner): risk of developing dry AMD by haloperidol exposure; assay type: in vivo, human; details: for Hazard Ratio of developing dry AMD (adjusted hazard ratio): adjusted Cox proportional hazards regression, propensity-score-matched, patients with schizophrenia or Tourette's disorder aged 50 or older
From the text: The retrospective study used claims data from the PearlDiver Mariner database, which contains data on health care claims and medication usage for persons in provider networks over the time period 2010 to the second quarter of 2018.
Patients were included in the analysis if they had continuous enrollment in the plan for at least 1 year and were at least 50 years of age at baseline. Individuals with pre-existing dry AMD (≥1 medical claims prior to diagnosis of schizophrenia or Tourette's disorder) were excluded. Disease claims were identified by International Classification of Diseases (ICD)-9-CM and ICD-10-CM codes.
Exposure to haloperidol—the independent variable—was determined by whether patients filled ≥1 outpatient pharmacy prescriptions for generic or brand versions, either in sole form or as a combination medication, as identified by National Drug Codes.
Time to initial diagnosis of dry AMD was the dependent variable.
Analyses were performed with the use of R software, version 4.2.2 (the R project (www.r-project.org)). To analyze the risk of dry AMD between haloperidol users and haloperidol non-users, an adjusted Cox proportional hazards regression analysis was performed, and the hazard ratio was analyzed by the likelihood ratio test. […] This adjusted model included confounding covariates that influence dry AMD risk: age, sex, smoking, body mass index, and Charlson comorbidity index. Kaplan-Meier survival plots were analyzed by log rank test. Statistical tests were 2-sided. P values <0.05 were considered statistically significant.
To evaluate the robustness of the findings and mitigate any possible residual confounding, we estimated propensity-score models including use of haloperidol and no use of haloperidol. The individual propensities for starting haloperidol treatment were estimated with the use of logistic regression. […] We used the R package MatchIt to perform matching in a 1:1 ratio using greedy nearest neighbor matching. In addition, to control for any residual covariate imbalance, we estimated the relative hazard in the propensity score-matched groups using the multivariable Cox models that included the covariates from the multivariable regression analysis employed for the original unmatched group analyses. Statistical tests were two-sided. P values <0.05 were considered statistically significant.
We performed a retrospective, longitudinal cohort analysis in the PearlDiver Mariner database (comprising 150 million Americans from 2010 to 2018) among patients with schizophrenia or Tourette's disorder (the population that would be exposed to haloperidol or other anti-psychotics) aged 50 or older (the population at risk) to assess the risk of dry AMD.

[1] = patients taking haloperidol (Coryell, 1998); cited from earlier work
[2] = system: Alu RNA-induced RPE degeneration; assay: Alu RNA-induced RPE degeneration in mice (ZO-1 stained RPE flat mounts); assay type: in vivo, C57BL/6J mice
Method: C57BL/6J mice (The Jackson Laboratory) were anesthetized with ketamine hydrochloride and xylazine. In vitro-transcribed Alu RNA (300 ng in 1 μL) was injected subretinally to induce RPE degeneration (Kaneko, 2011). Various doses of haloperidol (Sigma Aldrich; 1-500 ng in 0.5 μL) or PBS (vehicle) was injected into the vitreous humor 24 h before and immediately after Alu RNA injection. Alternatively, various doses of haloperidol (2-10 μg) were administered via intraperitoneal administration on days 1 through 6 after Alu RNA injection. Animals were euthanized 7 days after Alu RNA injection, and the eyes were enucleated.
RPE health was assessed by immunofluorescence staining of zonula occludens-1 (ZO-1) on RPE flat mounts. Flat mounts were fixed with 2% PFA, stained with rabbit polyclonal antibodies against mouse ZO-1 (Invitrogen), visualized with Alexa Fluor 594 (Invitrogen), and imaged (A1R Nikon). Images were graded as healthy or degenerated in masked fashion as previously described (Kerur, 2018). Proportions of eyes with degeneration were compared using Fisher's exact test.

[3] = system: IL-1β secretion by THP-1 cells; assay: Inflammasome activation: IL-1β secretion ELISA in LPS and ATP stimulated THP-1 cells; assay type: cell-based, human; details: LPS 125 ng/ml 4 h + ATP 5 mM 30 min, haloperidol pretreatment 1 h, P<0.05 vs vehicle
Method: Human THP-1 cells were stimulated with LPS (125 ng/ml) for 4 h and ATP (5 mM) for 30 min. For all experiments, cells were pretreated with haloperidol (1, 10, or 100 μM) for 1 h and again after the activating stimuli. Secreted human […] in the conditioned cell culture media was detected using an ELISA kit (R&D Systems) according to the manufacturer's instructions. Mean and SEM values are presented.
Haloperidol was tested for inhibition of inflammasome activation. Inflammasome activation was assessed in human THP-1 monocytes by measuring IL-1ß secretion via ELISA.

## O=C(CCCN1CCC(O)(c2ccc(Cl)cc2)CC1)c1ccc(F)cc1 [haloperidol]
Dry AMD; Mariner database, log-rank test P<0.001
  rate of developing dry AMD (Kaplan-Meier survival analysis): significantly slower rate
Dry AMD; Mariner database
  Hazard Ratio of developing dry AMD (adjusted hazard ratio): 0.747
Dry AMD; Mariner database, listed as Haloperidol
  Hazard Ratio of developing dry AMD (adjusted hazard ratio): 0.7468
Dry AMD; haloperidol exposure vs nonexposure, Mariner, adjusted Cox model
  reduced hazard of developing dry AMD: 25%
[1]
  serum concentration: exceeding 20 ng/ml
[2]; 5 ng haloperidol intravitreous, 24 h before and immediately after subretinal Alu RNA, assessed day 7
  eyes protected against RPE degeneration: 70%
[2]; daily intraperitoneal injection at 2 μg, 5 μg, or 10 μg, days 1 through 6 after Alu RNA
  protection against RPE degeneration: 70-80%
[2]; intravitreous dose-ranging 1 ng to 500 ng
  dose with maximal protective effect against RPE degeneration: 5 ng
[2]; subretinal Alu RNA, intravitreous or intraperitoneal haloperidol (FIG. 3)
  Alu RNA-induced RPE degeneration (qualitative): blocked
[3]
  IL-1β secretion (inflammasome activation): reduced; also recorded: inhibits
